Assay in all cases: NCI tumour cell line growth inhibition, 48 h
The test system of assay [1] is A549 NSCLC.
Assay [2] has as its system UACC-62 melanoma.
Assay [3] relates to T-47D breast.
Assay [4] has as its system SK-MEL-5 melanoma.
In assay [5] the test system is HCC-2998 colon.
Assay [6] has as its system KM12 colon.
Assay [7] deals with PC-3 prostate.
Assay [8] relates to SF-539 CNS.
Assay [9] concerns SK-OV-3 ovarian.
Assay [10] has as its system SF-295 CNS.

Each structure is given as a SMILES string.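 Cells were grown in 96-well plates and exposed to each compound for 48 hours at five concentrations; endpoints were interpolated linearly between bracketing concentrations, or set to the highest concentration if not reached. GI50 = concentration required for 50% inhibition of growth. TGI: concentration producing complete growth inhibition.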

Turning to `CCC(C(=O)C(=O)OC)P1(=O)OC(C)(C)CN1C(C)(C)C` (stereo unspecified), the TGI was greater than 100 µM in [1]; 60.4 µM in assay [2]; greater than 100 µM in assay [3]; greater than 100 µM in [4]; greater than 100 µM in assay [5]; greater than 100 µM in assay [6]. Also, the TGI in assay [7], in assay [8], in [9] and in [10] was greater than 100 µM throughout.

Regarding `CC(=O)c1cnc2oc3ccc(O)cc3c2c1-c1ccccc1`, the TGI in assay [1] was greater than 100 µM; in assay [2], 70.4 µM; in assay [3] it was 80.4 µM; in assay [4], greater than 100 µM; in assay [5], greater than 100 µM; in assay [6], greater than 100 µM. The TGI in assay [7] was greater than 100 µM; in assay [8] it was 46.2 µM; in assay [9], 45.4 µM; in assay [10], greater than 100 µM. In assay [6], the GI50 is 40.8 µM.

In the case of `[O-]/[N+](=C\c1ccccc1OC(=S)S)c1ccc(Cl)cc1`, the TGI in [1] was greater than 100 µM; in assay [2] it was greater than 100 µM; in assay [3] it was 88.2 µM; in assay [4], greater than 100 µM; in assay [5] it was greater than 100 µM; in assay [6] it was greater than 100 µM. Moreover, the TGI in assay [7], in assay [8], in assay [9] and in assay [10] was greater than 100 µM throughout.

On to `Cc1c2c(OCC3CCCCO3)nn(C)c(=O)c2c(C)n1-c1ccccc1` (stereo unspecified), for which the TGI in [1] worked out at 33.7 µM; in [2] it was 31 µM; in [3] it was 70.3 µM; in assay [4], 29.1 µM; in assay [5], 29.4 µM; in assay [6], 40.4 µM. The TGI in [7] was found to be 36 µM; in [8] it was 37.2 µM; in [9], 34.8 µM; in assay [10], 31.4 µM.

Turning to `CN(C)CC1CCC(CN(C)C)C1=O` (stereo unspecified), the TGI in assay [1] worked out at 39 µM; in assay [2], 27.2 µM; in assay [3] it was 3.48 µM; in assay [4] it was 15.9 µM; in [5], 32.9 µM; in assay [6], 26.7 µM. For the same compound, the TGI in assay [7] stood at 4.58 µM; in assay [8], 33.3 µM; in assay [9], 30.6 µM; in assay [10], 32.8 µM.

For the compound `CCOC(=O)/C=C(\C(=O)OCC)n1ccc(=O)n(Cc2cn(COCCOC(C)=O)nn2)c1=O`, the TGI in assay [1] is greater than 100 µM; in [2], 38.6 µM; in [3], 55.8 µM; in assay [4], 47.1 µM; in assay [5], 30.2 µM; in assay [6], greater than 54.6 µM. For the same compound, the TGI in assay [7] was 41.5 µM; in assay [8] it was 38.9 µM; in assay [9], greater than 100 µM; in assay [10], greater than 100 µM.

Take `CC(NC(=O)N(C)C)NC(=O)N(C)C`: the TGI in assay [1], in assay [2], in [3], in [4], in assay [5] and in [6] was greater than 10 µM in each case. Moreover, the TGI in assay [7], in [8], in [9] and in assay [10] was greater than 10 µM each time.

`COC1=C(C)C(=O)c2c(c(COC(N)=O)c3n2CC(OC(C)=O)C3OC(C)=O)C1=O` (stereo unspecified): the TGI in [1] stood at 1.6 µM; in assay [2] it was 0.245 µM; in assay [3], 3.11 µM; in [4], 0.392 µM; in assay [5] it was 0.262 µM; in assay [6] it was 0.939 µM. Besides, the TGI in [7] stood at 0.402 µM; in assay [8], 0.165 µM; in assay [9] it was 1.57 µM; in [10], 0.657 µM.

Turning to `OCc1ccc2c(c1)CC1(Cc3ccc(/C=N/O)cc3C1)C2` (stereo unspecified), the TGI was greater than 100 µM in [1]; greater than 56.1 µM in assay [2]; greater than 100 µM in assay [3]; 8.25 µM in assay [4]; 11.5 µM in assay [5]; 19.1 µM in assay [6]. Besides, the TGI in [7] was greater than 100 µM; in assay [8], 11.3 µM; in assay [9], greater than 100 µM; in [10] it was greater than 40.8 µM.

Regarding `Cc1cnc2c(c1)C(=O)C1=C(C2=O)C2OC(=O)CC2OC1(C)C` (stereo unspecified), the TGI in assay [1] was determined as 5.62 µM; in [2], 0.351 µM; in assay [3], 1.42 µM; in assay [4], 0.997 µM; in assay [5] it was 0.822 µM; in [6], 1.73 µM. Besides, the TGI in assay [7] stood at 0.812 µM; in assay [8] it was 0.575 µM; in [9] it was 2.77 µM; in [10] it was 2.68 µM.

Turning to `Nc1nn2c(=O)c3ccccc3nc2s1`, the TGI in assay [1], in assay [2], in [3], in [4], in assay [5] and in assay [6] was greater than 100 µM each time. For the same compound, the TGI in assay [7], in [8], in assay [9] and in assay [10] was greater than 100 µM in each case.

With `Oc1[nH]c2ccccc2c1N=NC(=S)Nc1ccc(Cl)cc1`, the TGI in [1] is greater than 100 µM; in assay [2], greater than 100 µM; in assay [3], greater than 100 µM; in assay [4] it was 63.4 µM; in assay [5], greater than 100 µM; in assay [6] it was greater than 100 µM. For the same compound, the TGI in assay [7] was greater than 100 µM; in [8] it was 82.3 µM; in [9], greater than 100 µM; in assay [10], greater than 100 µM.

In the case of `N#Cc1nc(C2CCC2)oc1N`, the TGI in assay [1], in assay [2], in assay [3], in [4], in assay [5] and in assay [6] was greater than 100 µM in each case. Besides, the TGI in assay [7], in assay [8], in assay [9] and in assay [10] was greater than 100 µM throughout.

For the origin of these results see PubChem BioAssay (NCI).
